The values below are quoted from earlier work in patent US20200319191A1, “MOLECULAR PROFILING FOR CANCER” (Caris MPI, Inc., priority 2015, published 2020).

In data set [1] the target is c-Kit (Homo sapiens, UniProt P10721).
Data set [2] relates to platelet-derived growth factor receptor (PDGFR).
The target of data set [3] is T1, ribonucleotide reductase (Homo sapiens, UniProt P23921).
T1 sequence (P23921 1-792): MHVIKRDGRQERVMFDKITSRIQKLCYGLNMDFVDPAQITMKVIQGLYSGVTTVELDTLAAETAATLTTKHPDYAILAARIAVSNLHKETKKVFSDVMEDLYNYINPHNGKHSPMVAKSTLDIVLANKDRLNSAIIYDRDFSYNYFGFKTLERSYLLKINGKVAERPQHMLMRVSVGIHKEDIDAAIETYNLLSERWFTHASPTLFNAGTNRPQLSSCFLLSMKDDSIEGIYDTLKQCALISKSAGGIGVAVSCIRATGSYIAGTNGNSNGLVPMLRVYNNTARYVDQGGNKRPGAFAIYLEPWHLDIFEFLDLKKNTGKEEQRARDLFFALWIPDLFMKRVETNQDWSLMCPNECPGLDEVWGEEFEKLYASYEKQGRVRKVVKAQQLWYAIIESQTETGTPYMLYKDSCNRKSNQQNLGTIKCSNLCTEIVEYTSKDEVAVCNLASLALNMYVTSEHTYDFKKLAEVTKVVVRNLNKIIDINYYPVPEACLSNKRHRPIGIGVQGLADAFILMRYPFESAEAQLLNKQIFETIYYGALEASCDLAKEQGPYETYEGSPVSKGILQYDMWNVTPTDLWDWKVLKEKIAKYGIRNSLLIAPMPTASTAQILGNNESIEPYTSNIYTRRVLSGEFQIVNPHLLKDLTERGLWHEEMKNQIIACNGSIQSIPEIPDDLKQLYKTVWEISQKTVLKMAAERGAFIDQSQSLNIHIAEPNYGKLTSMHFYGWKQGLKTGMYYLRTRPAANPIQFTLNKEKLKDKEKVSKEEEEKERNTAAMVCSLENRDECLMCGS

The conditions of data set [4]: for Evid. Level, ER Positive (IHC) / Bene. Level, ER Positive (IHC): Hormonal Agents.

Each structure is given as a SMILES string. Read-outs that look alike come from different tables or passages of the source.

c-Kit, sequence (P10721 26-976): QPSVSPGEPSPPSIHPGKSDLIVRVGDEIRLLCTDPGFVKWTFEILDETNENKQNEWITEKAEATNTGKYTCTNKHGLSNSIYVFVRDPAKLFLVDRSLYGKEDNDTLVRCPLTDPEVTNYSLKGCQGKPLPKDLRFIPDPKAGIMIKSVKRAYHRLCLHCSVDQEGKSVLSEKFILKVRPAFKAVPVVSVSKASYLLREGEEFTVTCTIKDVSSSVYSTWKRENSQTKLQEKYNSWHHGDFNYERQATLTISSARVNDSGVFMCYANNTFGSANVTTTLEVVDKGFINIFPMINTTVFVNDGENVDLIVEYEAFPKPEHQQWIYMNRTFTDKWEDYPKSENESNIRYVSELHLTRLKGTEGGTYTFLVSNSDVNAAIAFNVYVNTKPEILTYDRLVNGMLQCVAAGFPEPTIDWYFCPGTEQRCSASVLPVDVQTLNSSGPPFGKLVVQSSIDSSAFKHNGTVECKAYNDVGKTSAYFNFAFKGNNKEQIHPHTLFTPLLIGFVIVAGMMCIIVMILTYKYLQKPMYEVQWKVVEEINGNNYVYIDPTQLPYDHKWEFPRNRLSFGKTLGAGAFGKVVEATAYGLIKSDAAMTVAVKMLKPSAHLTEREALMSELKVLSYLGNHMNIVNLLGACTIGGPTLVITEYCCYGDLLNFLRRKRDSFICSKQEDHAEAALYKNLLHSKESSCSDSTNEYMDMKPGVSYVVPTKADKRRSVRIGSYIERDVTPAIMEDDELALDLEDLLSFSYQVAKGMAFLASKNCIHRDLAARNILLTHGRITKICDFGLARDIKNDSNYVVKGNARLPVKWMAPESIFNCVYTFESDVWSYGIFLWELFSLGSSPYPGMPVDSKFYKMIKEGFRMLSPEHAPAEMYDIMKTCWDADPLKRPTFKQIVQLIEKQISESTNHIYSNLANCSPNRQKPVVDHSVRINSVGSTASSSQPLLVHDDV

`Cc1ccc(NC(=O)c2ccc(CN3CCN(C)CC3)cc2)cc1Nc1nccc(-c2cccnc2)n1` [Imatinib, imatinib]: the kinase activity entry in data set [1] and in data set [2] was “block the activity” in each case.

Turning to `Nc1ccn([C@@H]2O[C@H](CO)[C@@H](O)C2(F)F)c(=O)n1` [Gemcitabine], the “effect on ribonucleotide reductase activity” value in data set [3] is “synthesis. Gemcitabine is a deoxycitidine analogue which inhibits ribonucleotide reductase”.

`CC(=O)O[C@]1(C(C)=O)CC[C@H]2[C@@H]3C=C(C)C4=CC(=O)CC[C@]4(C)[C@H]3CC[C@@]21C` [megestrol acetate]: the “Evid. Level, ER Positive (IHC)” value in data set [4] (ER Positive (IHC)=F) and in data set [4] (ER Positive (IHC)=T) was 1 throughout. For the same compound, the “Bene. Level, ER Positive (IHC)” value in data set [4] (ER Positive (IHC)=T) was 1.

Consider `CNC(=O)c1ccc(N2C(=S)N(c3ccc(C#N)c(C(F)(F)F)c3)C(=O)C2(C)C)cc1F` [enzalutamide], for which the “resistance by AR mutations” value in data set [4] (specific mutations in AR (e.g. F876L, AR-V7)) is listed as “F876L, AR-V7) are associated with resistance to newer-generation, AR-targeted therapies”.

For `Nc1ccn([C@@H]2O[C@H](CO)[C@@H](O)C2(F)F)c(=O)n1` [gemcitabine], the “resistance by RRM1 level” value in data set [4] (high RRM1 level) is “activity. High RRM1 level is associated with resistance to gemcitabine”.

For the compound `CC(C)(C#N)c1cc(Cn2cncn2)cc(C(C)(C)C#N)c1` [anastrozole], the “Evid. Level, ER Positive (IHC)” value in data set [4] (ER Positive (IHC)=F) and in data set [4] (ER Positive (IHC)=T) was 1 throughout. In addition, the “Bene. Level, ER Positive (IHC)” value in data set [4] (ER Positive (IHC)=T) was 1.
